The numbers were not newly measured in patent US20020122835A1, “Compositions for enhancing muscle tissue recovery and repair” (priority 2001, published 2002), which cites them from elsewhere.

The conditions of series [1]: oral administration, human volunteers; Kobayashi et al 1998.

Regarding `CCNC(=O)CC[C@H](N)C(=O)O` [L-theanine], the “safety in animal experiments” value is listed as “safe”. For the same compound, the feeling of relaxation entry in series [1] was “caused a feeling of relaxation”.
